From patent US9359196B2, “Antiproliferative compositions comprising curcumin analogs and methods of producing and using same” (The Board of Regents of the University of Oklahoma, priority 2009, dated 2016)

Legend:
[1] = test system: PC-3 (prostate cancer) cells; assay: Cell proliferation study in PC-3 cells; assay type: cell-based
Description: Cell Culture and drug treatment: Human lung adenocarcinoma cell line NCI-H441 (ATCC Number: HTB-174) was obtained from the American Type Culture Collection (Manassas, Va.). H441 cells were maintained at 37° C. with 5% CO2 in McCoy's 5A Medium (Invitrogen, Carlsbad, Calif.) supplemented with 5% heat-inactivated fetal bovine serum (FBS). All media contained gentamicin at 50 μg/ml (GIBCO Laboratories, Grand Island, N.Y.). Other cells lines (PANC-1, MiaPaCa-2 and PC-3) were also similarly maintained, except that the cell culture medium was RPMI 1640 instead of McCoy's.
To evaluate the anti-proliferative activity of synthesized bis(2-fluorobenzylidene)-4-piperidone and its derivatives, the cells were seeded in 96-well flat-bottom tissue culture plates at a density of 10×10^3 cells per well. The cells were allowed to attach and grow overnight. The test compounds were solubilized in dimethyl sulfoxide (DMSO), filtered through 0.2 μm nylon filter and added to cells at 1, 10, 25 and 100 μM concentrations in culture medium supplemented with 5% FBS. […]
Cell Proliferation: The total number of cells after the treatment period was estimated by the hexosaminidase assay. […] The absorbance was measured at 405 nm. […] The data were analyzed as percent of control, where the control wells were treated with equivalent amounts of DMSO alone, and the analyzed data was presented as average±standard error of mean. […]

H441 cells [2] = assay: Transmission electron microscopy of treated H441 cells (autophagy); assay type: cell-based, human; conditions: 24 hour treatment, 1 and 10 μM
Description: Transmission Electron Microscopy (TEM): TEM was performed after 24 hour treatment with 1 and 10 μM of compound 1 or compound 29 (CLEFMA). The cells were fixed in 0.1M sodium cacodylate buffer containing 4% paraformaldehyde (PFA) and 2% glutaraldehyde for 4 h at room temperature. The samples were post-fixed in 1% osmium tetroxide for 1.5 h and washed with 0.1M sodium cacodylate buffer, followed by dehydration in an ethanol series of 50%, 60%, 75%, 85%, and 95% for 15 minutes each. The cells were washed twice in 100% Ethanol and passed through a series of epon-araldite (6.2 g epon+4.4 g araldite+12.4 g of dodecenyl succinic anhydride+0.8 g N,N-dimethylbenzylamine) solution in ethanol, [Matsko et al., 2005] before embedding the cells in epon-araldite resin. Finally, 100 nm sections were cut using a microtome, and the sections were placed on glow-discharged 300 mesh Copper grids. The ultrasections were stained with Sato's lead (mixture of calcinated lead citrate, lead nitrate, lead acetate and sodium citrate), and observed by a Hitachi H-7600 Transmission Electron Microscope at 2500× (Oklahoma Medical Research Foundation Imaging and core facility, Oklahoma City).

[3] = Histopathology of liver, lung and kidney; assay type: in vivo; conditions: rats treated with CLEFMA liposomes
From the text: After the animals were euthanized, a part of the liver, lung and kidney were fixed in 10% formalin. The formalin-preserved tissues were used for histology by staining 5 μm sections of paraffin-embedded tissues with H&E stain. The sections were read by a veterinary pathologist (OUHSC, Oklahoma City) in a blinded fashion for the presence of necrosis, hemorrhage, inflammation or any other pathological changes.

H441 cells [4] = assay: Cell proliferation assay in H441 cells (hexosaminidase), Example 3; assay type: cell-based, human
Description: Cell proliferation assay: CLEFMA was synthesized and analyzed for purity by the methods detailed elsewhere. Doxorubicin (DOX, GBiosciences, Maryland Heights, Mo.), Paclitexal (PAX, EMD Chemicals, Gibbstown, N.J.), Curcumin (CUR, Sigma, St. Louis, Mo.) and Gemcitabine (GMCB, Acros Organics, Morris Plains, N.J.) were obtained from commercial sources. For cell proliferation assays, the cells were seeded in 96-well, flat-bottom tissue culture plates at a density of 5,000 cells per well. The cells were allowed to adhere and grow overnight, followed by their treatment with drugs (0-20 μM). All drugs were added as solutions in dimethylsulfoxide (DMSO) filtered through 0.2-μm nylon filters; control wells received identical amounts of DMSO without any drugs. The inhibition of cell proliferation was determined after 24-48 h by measuring the decrease in hexosaminidase activity as described by Landegren [Landegren, 1984]; para-nitrophenol-N-acetyl-beta-D-glucosaminide was used as a substrate for the hexosaminidase enzyme. To assess the effect of antioxidants, the cells were simultaneously treated with catalase (CAT, 1000 U), superoxide dismutase (SOD, 500 U) and N-acetylcysteine (NAC, 1 mM). A non-toxic concentration of CAT (Worthington, N.J.), SOD (Sigma, St. Louis, Mo.) and NAC (Enzo Life Sciences, Plymouth Meeting, Pa.) was established in H441 cells prior to these experiments.

H441 cells [5] = assay: Reactive oxygen species assay (DCFH-DA) in H441 cells; assay type: cell-based, human; conditions: 24 and 48 h
Description: (§1) Reactive oxygen species (ROS) assay: The CLEFMA-induced generation of ROS in H441 and CCL-151 cells was measured using the OxiSelect assay kit (Cell Biolabs, Inc., San Diego, Calif.). Briefly, the cells were cultured in 96-well plates, and the cell-permeable fluorogenic probe 2′,7′-dichlorodihydrofluorescin diacetate (DCFH-DA) was added to the wells and the plate was incubated for 30-60 min. The wells were washed thrice with PBS and treated with CLEFMA in culture medium for 24 and 48 h. After the incubation period, the medium was removed and the cells were gently washed 2-3 times with PBS, and the fluorescence, indicating ROS activity, was measured at 480 nm/530 nm (excitation/emission wavelengths) using the Cytoflour 2300 (Millipore, Billerica, Mass.).

[6] = test system: CCL-151 normal lung fibroblasts; assay: Reactive oxygen species assay (DCFH-DA) in CCL-151 normal lung fibroblasts; assay type: cell-based
Description: as §1

## O=C(O)C=CC(=O)N1CC(=Cc2ccccc2Cl)C(=O)C(=Cc2ccccc2Cl)C1 [Compound 29, 4-[3,5-Bis-(2-chlorobenzylidene)-4-oxo-piperidin-1-yl]-4-oxo-2-butenoic acid]
[1]
  potency of antiproliferative action: enhanced the potency of antiproliferative action
H441 cells [2]
  change in cellular architecture (TEM): induced a substantial change in cellular architecture
[3]
  histopathological toxicity in liver, lung and kidney: no toxicities in these tissues
H441 cells [4]; 10 and 20 μM
  antiproliferative activity versus PAX, GMCB, DOX, CUR: antiproliferative activity comparable to that shown by these drugs
H441 cells [4]; CLEFMA 10 and 20 μM
  effect of co-administered CAT, SOD, NAC on cytotoxicity: partially rescue CLEFMA-induced cytotoxicity
H441 cells [5]
  ROS generation: generated ROS in a dose- and time-dependent fashion
[6]
  ROS production: did not increase ROS production in normal lung fibroblasts
